The values below are quoted from earlier work in US20060078974A1, “Novel purified hydroxymethylglutaryl-CoA reductases and structures thereof” (Affinium Pharmaceuticals, Inc., priority 2004, published 2006).

The target in the data set is S. aureus HMGR. To be noted: inhibition of S. aureus HMGR; reported value.

Usually Ki stands for the dissociation constant of the complex between target and ligand, obtained from inhibition or displacement. As for `CC(C)n1c(/C=C/[C@@H](O)C[C@@H](O)CC(=O)O)c(-c2ccc(F)cc2)c2ccccc21` (racemic) [Fluvastatin], the Ki is around 320 µM.
